In article PMC2806030, “Inhibition of mammalian S6 kinase by resveratrol suppresses autophagy” (Aging (Albany NY), 2009):

Assays:
Test in all cases: biochemical
Design in all cases: Upstate KinaseProfiler in vitro kinase activity assay, per cent of DMSO control
Conditions in all cases: read-out: Activity (% of Control)
[1] = target: LIMK1(h) (Homo sapiens, UniProt P53667)
Procedure: (§1) Kinase profile and kinase assay. A Kinase profile against 100 kinases listed for resveratrol at 20 μM was generated utilizing Upstate's KinaseProfiler™ service. Assay protocols for each kinase are available from Upstate (Lake Placid, NY). In vitro kinase assay was performed as described previously. Briefly, HEK293 cells were transfected with HA-S6K1 wt, HA-S6K1 K100R, or vector as indicated. Cells were treated with 1 μg/ml insulin for 10 minutes prior to harvesting in PBS + 0.5% NP-40 + protease and phosphatase inhibitors. 125 μg of lysate per sample was immunoprecipitated using 0.5 μg/sample of anti-HA High-Affinity (Roche, Basel Switzerland). Beads from immunoprecipitations were washed three times in lysis buffer and once in kinase buffer, and kinase assays were performed with recombinant GST-S6 as substrate (1 μg per assay). In the indicated lanes varying doses of resveratrol or DMSO control were added to the reaction prior to addition of the GST-S6 substrate. All samples were subjected to SDS-PAGE, and 32P incorporation was quantified by using a Bio-Rad (Hercules, CA) Phosphor-Imager and subsequent analysis with ImageJ (NIH).  Figure 4. Resveratrol inhibits S6K1 in vitro. (A) Structural similarity between resveratrol and quercetin, a known kinase inhibitor. (B) Kinase inhibition profile for resveratrol at 20 μM obtained using KinaseProfiler™ (Upstate). Dashed line represents 100% activity as compared to control. Black filled-in bar on the graph indicates S6K1. Complete data set is provided in Supplementary Table 1. Error bars represent s.d.m. (C) Phosphorylation of recombinant GST-tagged S6 by immunoprecipitated HA-S6K1 under increasing concentrations of resveratrol (Res). Autoradiograph depicts S6K1 phosphorylation of GST-S6. (D) Average of three separate kinase assay experiments as performed in (C). Densitometry was performed using NIH ImageJ. Error bars represent s.e.m. […] Therefore, we hypothesized that the effect of resveratrol on autophagy could be related to inhibition of one or more upstream kinases. To test this, we performed an in vitro kinase screen and determined an inhibition profile for resveratrol. […] With the exception of S6K1, these kinases play primary roles in the hematopoietic system, and were thus viewed as unlikely to have been responsible for the effect we were studying. […] On the other hand, S6K1 is known to play a requisite role in the regulation of autophagy in Drosophila, making it a promising candidate for the in vivo target of resveratrol that is responsible for inhibition of autophagy.

[2] = target: T1, Snk(h) (Homo sapiens, UniProt Q9NYY3)
T1 construct: gene PLK2
Procedure: as §1

[3] = target: T2, SAPK2b(h) (Homo sapiens, UniProt Q15759)
T2 construct: gene MAPK11
Procedure: as §1

[4] = target: T3, IRR(h) (Homo sapiens, UniProt P14616)
T3 construct: gene INSRR
Procedure: as §1

[5] = target: T4, Pim-1 (Homo sapiens, UniProt P11309)
T4 construct: gene PIM1
Procedure: as §1

[6] = target: T5, CHK1(h) (Homo sapiens, UniProt O14757)
T5 construct: gene CHEK1
Procedure: as §1

[7] = target: T6, TrkA(h) (Homo sapiens, UniProt P04629)
T6 construct: gene NTRK1
Procedure: as §1

[8] = target: T7, PI 3-Kinaseγ(h) (Homo sapiens, UniProt P48736)
T7 construct: gene PIK3CG
Procedure: as §1

[9] = target: T8, JNK1α1(h) (Homo sapiens, UniProt P45983)
T8 construct: gene MAPK8; isoform alpha1
Procedure: as §1

[10] = target: Jak2 (Homo sapiens, UniProt O60674)
Procedure: as §1

[11] = target: T9, PDGFRß(h) (Homo sapiens, UniProt P09619)
T9 construct: gene PDGFRB
Procedure: as §1

[12] = target: T10, PKA(h) (Homo sapiens, UniProt P17612)
T10 construct: gene PRKACA
Procedure: as §1

[13] = target: T11, PDGFRα(h) (Homo sapiens, UniProt P16234)
T11 construct: gene PDGFRA
Procedure: as §1

[14] = target: CDK9/cyclin T1(h) (Homo sapiens, UniProt P50750)
Procedure: as §1

[15] = target: Flt3(h) (Homo sapiens, UniProt P36888)
Procedure: as §1

[16] = target: IRAK1(h) (Homo sapiens, UniProt P51617)
Procedure: as §1

[17] = target: T12, CDK5/p35(h) (Homo sapiens, UniProt Q00535)
T12 construct: p35
Procedure: as §1

[18] = target: NEK2(h) (Homo sapiens, UniProt P51955)
Procedure: as §1

T3 sequence (P14616 whole entry): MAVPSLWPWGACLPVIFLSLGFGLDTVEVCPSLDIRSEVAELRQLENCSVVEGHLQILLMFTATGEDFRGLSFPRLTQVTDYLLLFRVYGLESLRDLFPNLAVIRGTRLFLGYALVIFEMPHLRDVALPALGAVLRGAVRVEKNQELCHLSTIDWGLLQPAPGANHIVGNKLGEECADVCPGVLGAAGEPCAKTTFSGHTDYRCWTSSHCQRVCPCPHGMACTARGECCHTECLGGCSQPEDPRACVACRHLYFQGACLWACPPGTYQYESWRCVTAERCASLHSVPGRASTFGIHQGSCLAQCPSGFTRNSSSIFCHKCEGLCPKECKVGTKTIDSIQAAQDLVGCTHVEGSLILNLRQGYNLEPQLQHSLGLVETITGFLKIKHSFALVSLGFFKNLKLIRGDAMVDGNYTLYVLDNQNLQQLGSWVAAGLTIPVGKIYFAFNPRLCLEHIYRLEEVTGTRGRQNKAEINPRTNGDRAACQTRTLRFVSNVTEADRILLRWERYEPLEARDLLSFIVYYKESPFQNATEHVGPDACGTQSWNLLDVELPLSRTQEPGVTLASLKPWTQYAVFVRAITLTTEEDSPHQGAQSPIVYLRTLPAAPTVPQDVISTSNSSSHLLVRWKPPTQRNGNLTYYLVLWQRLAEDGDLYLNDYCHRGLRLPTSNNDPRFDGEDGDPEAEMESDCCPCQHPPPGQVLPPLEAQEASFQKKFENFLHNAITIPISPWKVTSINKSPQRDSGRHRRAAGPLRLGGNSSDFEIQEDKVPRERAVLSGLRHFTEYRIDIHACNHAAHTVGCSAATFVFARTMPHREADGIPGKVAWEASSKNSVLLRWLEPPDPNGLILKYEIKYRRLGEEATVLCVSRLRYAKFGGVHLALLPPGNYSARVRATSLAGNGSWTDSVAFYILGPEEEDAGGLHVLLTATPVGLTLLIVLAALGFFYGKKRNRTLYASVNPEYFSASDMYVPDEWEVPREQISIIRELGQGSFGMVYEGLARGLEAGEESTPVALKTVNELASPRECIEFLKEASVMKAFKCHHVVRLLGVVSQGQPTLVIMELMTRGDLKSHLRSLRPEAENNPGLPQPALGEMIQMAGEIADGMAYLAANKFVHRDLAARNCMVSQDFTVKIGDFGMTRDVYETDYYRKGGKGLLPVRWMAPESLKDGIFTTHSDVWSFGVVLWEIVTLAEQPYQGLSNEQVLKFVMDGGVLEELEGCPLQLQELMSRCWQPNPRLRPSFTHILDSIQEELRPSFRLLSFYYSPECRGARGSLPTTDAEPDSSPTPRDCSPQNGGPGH
Chain of IRAK1(h) (P51617 whole entry): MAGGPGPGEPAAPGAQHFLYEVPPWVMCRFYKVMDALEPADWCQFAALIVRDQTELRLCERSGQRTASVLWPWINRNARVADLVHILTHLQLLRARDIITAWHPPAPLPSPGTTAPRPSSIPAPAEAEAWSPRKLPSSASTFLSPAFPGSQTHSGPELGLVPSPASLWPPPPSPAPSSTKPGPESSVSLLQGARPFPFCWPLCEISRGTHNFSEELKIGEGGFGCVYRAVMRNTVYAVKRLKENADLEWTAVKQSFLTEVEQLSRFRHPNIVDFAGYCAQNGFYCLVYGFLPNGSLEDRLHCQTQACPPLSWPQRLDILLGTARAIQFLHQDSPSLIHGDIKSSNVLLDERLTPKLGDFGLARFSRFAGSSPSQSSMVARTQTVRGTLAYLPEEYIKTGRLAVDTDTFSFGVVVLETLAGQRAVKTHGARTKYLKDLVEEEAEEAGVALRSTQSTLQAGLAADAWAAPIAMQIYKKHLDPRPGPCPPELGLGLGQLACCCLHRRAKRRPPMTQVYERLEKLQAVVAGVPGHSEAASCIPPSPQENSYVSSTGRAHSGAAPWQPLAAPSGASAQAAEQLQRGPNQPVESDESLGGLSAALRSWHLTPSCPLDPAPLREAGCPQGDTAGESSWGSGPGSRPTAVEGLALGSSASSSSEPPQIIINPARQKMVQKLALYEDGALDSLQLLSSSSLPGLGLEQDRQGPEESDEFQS
Chain of NEK2(h) (P51955 whole entry): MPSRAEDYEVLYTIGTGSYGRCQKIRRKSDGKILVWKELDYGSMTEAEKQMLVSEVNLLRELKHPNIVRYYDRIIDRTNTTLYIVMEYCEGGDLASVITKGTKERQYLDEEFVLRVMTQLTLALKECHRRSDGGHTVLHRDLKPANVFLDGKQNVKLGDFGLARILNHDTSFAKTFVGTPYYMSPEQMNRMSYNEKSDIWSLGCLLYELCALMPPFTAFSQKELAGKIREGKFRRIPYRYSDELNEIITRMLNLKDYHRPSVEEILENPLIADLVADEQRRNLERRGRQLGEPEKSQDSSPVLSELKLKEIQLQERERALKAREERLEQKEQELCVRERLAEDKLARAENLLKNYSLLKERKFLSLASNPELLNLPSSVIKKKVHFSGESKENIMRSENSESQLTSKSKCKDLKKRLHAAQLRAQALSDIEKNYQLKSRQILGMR
T9 sequence (P09619 whole entry): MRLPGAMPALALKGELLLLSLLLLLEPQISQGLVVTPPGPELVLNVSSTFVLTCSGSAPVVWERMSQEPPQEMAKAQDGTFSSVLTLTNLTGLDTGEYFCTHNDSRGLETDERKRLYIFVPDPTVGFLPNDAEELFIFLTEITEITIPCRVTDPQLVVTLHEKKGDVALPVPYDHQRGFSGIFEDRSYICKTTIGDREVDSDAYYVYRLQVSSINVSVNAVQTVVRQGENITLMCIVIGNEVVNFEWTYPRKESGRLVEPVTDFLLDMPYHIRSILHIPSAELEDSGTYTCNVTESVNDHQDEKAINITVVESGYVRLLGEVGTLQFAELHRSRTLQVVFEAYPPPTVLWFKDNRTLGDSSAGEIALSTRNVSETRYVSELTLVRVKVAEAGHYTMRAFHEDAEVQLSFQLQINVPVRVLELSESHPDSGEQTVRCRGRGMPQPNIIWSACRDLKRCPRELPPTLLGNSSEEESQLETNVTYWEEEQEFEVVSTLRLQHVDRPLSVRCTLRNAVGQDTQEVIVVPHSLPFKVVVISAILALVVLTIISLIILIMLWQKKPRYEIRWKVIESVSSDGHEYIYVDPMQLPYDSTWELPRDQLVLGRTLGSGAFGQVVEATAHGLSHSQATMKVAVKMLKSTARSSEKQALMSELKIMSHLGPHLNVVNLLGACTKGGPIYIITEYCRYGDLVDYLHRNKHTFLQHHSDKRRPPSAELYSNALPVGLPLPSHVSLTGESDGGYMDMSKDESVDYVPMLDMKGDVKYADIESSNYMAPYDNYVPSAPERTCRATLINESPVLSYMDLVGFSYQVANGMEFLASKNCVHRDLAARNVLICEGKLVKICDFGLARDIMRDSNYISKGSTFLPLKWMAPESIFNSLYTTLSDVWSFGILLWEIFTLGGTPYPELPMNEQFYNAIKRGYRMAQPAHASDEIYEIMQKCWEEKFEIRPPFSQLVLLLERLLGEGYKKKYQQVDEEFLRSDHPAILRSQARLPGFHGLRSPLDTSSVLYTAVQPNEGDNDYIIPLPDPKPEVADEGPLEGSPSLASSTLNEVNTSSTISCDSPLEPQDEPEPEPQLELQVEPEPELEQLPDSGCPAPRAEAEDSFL
T11 sequence (P16234 whole entry): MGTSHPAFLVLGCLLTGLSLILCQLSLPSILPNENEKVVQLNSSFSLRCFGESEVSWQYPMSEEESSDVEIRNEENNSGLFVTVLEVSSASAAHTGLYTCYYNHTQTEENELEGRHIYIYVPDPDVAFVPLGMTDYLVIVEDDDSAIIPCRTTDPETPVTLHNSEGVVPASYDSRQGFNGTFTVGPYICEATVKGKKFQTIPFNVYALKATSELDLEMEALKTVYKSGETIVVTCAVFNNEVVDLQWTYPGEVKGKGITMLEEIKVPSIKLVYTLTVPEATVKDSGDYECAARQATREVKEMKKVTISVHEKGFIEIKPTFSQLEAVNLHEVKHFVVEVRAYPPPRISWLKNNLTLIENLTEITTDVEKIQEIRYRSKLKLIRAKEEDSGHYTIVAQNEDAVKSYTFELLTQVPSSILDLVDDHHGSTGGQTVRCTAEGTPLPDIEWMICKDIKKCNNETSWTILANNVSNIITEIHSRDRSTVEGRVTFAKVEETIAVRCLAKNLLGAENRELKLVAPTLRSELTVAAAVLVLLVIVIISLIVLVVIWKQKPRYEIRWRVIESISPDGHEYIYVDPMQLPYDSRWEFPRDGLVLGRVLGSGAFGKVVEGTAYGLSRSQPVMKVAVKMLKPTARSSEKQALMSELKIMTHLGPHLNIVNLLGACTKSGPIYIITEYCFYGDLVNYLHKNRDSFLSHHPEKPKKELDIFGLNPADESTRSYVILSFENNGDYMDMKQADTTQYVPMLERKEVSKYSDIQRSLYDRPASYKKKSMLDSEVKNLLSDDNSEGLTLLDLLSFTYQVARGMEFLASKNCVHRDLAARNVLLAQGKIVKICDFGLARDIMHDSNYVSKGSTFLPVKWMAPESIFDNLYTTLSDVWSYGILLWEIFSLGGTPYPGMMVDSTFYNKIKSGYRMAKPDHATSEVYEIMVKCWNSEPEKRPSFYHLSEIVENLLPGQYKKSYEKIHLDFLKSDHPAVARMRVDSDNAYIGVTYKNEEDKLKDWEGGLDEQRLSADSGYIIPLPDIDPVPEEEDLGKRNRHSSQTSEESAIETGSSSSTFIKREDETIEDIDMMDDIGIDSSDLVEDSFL
T2 sequence (Q15759 whole entry): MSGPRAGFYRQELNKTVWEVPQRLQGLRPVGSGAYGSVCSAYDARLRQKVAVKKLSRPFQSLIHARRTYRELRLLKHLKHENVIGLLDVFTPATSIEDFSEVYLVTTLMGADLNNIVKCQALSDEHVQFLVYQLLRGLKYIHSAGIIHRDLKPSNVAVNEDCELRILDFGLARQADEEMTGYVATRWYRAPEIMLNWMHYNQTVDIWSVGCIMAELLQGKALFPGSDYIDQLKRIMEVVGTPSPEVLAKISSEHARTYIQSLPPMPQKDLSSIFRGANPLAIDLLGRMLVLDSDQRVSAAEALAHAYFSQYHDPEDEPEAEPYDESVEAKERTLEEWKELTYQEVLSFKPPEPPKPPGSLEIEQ

With `Oc1ccc(/C=C/c2cc(O)cc(O)c2)cc1` [Res, resveratrol] the remaining activity at 20 µM [1] was 84 ± 4%, the remaining activity at 20 µM [2] was 81 ± 3% and the remaining activity at 20 µM [3] was 100 ± 1%. It also gave a remaining activity at 20 µM [4] of 40%, a remaining activity at 20 µM [5] of 6 ± 2% and a remaining activity at 20 µM [6] of 95 ± 2%. The remaining activity at 20 µM [7] was 31 ± 3%, the remaining activity at 20 µM [8] was 101 ± 1% and the remaining activity at 20 µM [9] was 89 ± 5%. For the same compound, the remaining activity at 20 µM [10] was 27 ± 5%, the remaining activity at 20 µM [11] was 119 ± 2% and the remaining activity at 20 µM [12] was 100%. It also gave a remaining activity at 20 µM [13] of 114 ± 2%, a remaining activity at 20 µM [14] of 70 ± 3% and a remaining activity at 20 µM [15] of 41 ± 1%. It also gave a remaining activity at 20 µM [16] of 97%, a remaining activity at 20 µM [17] of 77 ± 2% and a remaining activity at 20 µM [18] of 102 ± 4%.
